This is an account of results in patent publication US20180319753A1, “MICROBIOCIDAL OXADIAZOLE DERIVATIVES” (SYNGENTA PARTICIPATIONS AG, priority 2015, published 2018).

Data set [1] deals with Puccinia recondita f. Sp. Tritici. Nature of the data set: Puccinia recondita f. sp. tritici / wheat / leaf disc curative (brown rust). The data set is classed as in vivo. The settings on record: foliar, 200 ppm in the applied formulation, wheat leaf segments cv. Kanzler, applied 1 day after inoculation, assessed 6 to 8 days after application, read-out: disease control compared to untreated control leaf disks. As to the method:
(§1) Leaf disks or leaf segments of various plant species are cut from plants grown in a greenhouse. The cut leaf disks or segments are placed in multiwell plates (24-well format) onto water agar. The leaf disks are sprayed with a test solution before (preventative) or after (curative) inoculation. Compounds to be tested are prepared as DMSO solutions (max. 10 mg/ml) which are diluted to the appropriate concentration with 0.025% Tween20 just before spraying. The inoculated leaf disks or segments are incubated under defined conditions (temperature, relative humidity, light, etc.) according to the respective test system. A single evaluation of disease level is carried out 3 to 14 days after inoculation, depending on the pathosystem. Percent disease control relative to the untreated check leaf disks or segments is then calculated.
Wheat leaf segments cv. Kanzler are placed on agar in multiwell plates (24-well format). The leaf segments are then inoculated with a spore suspension of the fungus. Plates were stored in darkness at 19° C. and 75% relative humidity. The formulated test compound diluted in water was applied 1 day after inoculation. The leaf segments were incubated at 19° C. and 75% relative humidity under a light regime of 12 hours light/12 hours darkness in a climate cabinet and the activity of a compound was assessed as percent disease control compared to untreated when an appropriate level of disease damage appears in untreated check leaf segments (6 to 8 days after application).
The following compounds at 200 ppm in the applied formulation give at least 80% disease control in this test when compared to untreated control leaf disks under the same conditions, which show extensive disease development.

The subject of data set [2] is Glomerella lagenarium (Colletotrichum lagenarium). Nature of the data set: Glomerella lagenarium (Colletotrichum lagenarium) liquid culture / cucumber / preventative (anthracnose). The data set is classed as cell-based. The settings on record: Colletotrichum orbiculare; 20 ppm in the applied formulation; liquid culture in PDB, 24° C.; 3 to 4 days after application; read-out: disease control compared to untreated control (inhibition of growth measured photometrically). A digest of the protocol: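 In liquid culture, cryo-stored conidia in potato dextrose broth were exposed to compound delivered from DMSO solution. Growth inhibition was measured photometrically after 3 to 4 days at 24° C.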

The test system of data set [3] is Puccinia recondita f. Sp. Tritici. Nature of the data set: Puccinia recondita f. sp. tritici / wheat / leaf disc preventative (brown rust). The class given is in vivo. The settings on record: foliar, 200 ppm in the applied formulation, wheat leaf segments cv. Kanzler, inoculated 1 day after application, assessed 7 to 9 days after application, read-out: disease control compared to untreated control leaf disks. As to the method:
as §1, with “calculated. Wheat leaf segments cv. Kanzler were placed on agar in multiwell plates (24-well format) and sprayed with the formulated test compound diluted in water. The leaf disks were inoculated with a spore suspension of the fungus 1 day after application. The inoculated leaf segments were incubated at 19° C. and 75% relative humidity (rh) under a light regime of 12 hours light/12 hours darkness in a climate cabinet and the activity of a compound was assessed as percent disease control compared to untreated when an appropriate level of disease damage appears in untreated check leaf segments (7 to 9 days after application). The following compounds at 200 ppm in the applied formulation give at least 80% disease control in this test when compared to untreated control leaf disks under the same conditions, which show extensive disease development.” for “calculated.”

The next data set concerns Phakopsora pachyrhizi. The experiment in a line: Phakopsora pachyrhizi / soybean / leaf disc preventative (Asian soybean rust). The class given is in vivo. To be noted: foliar, 200 ppm in the applied formulation, soybean leaf disks, inoculated one day after application, assessed 12 to 14 days after application, read-out: disease control compared to untreated control leaf disks. A digest of the protocol:
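Read-out is percent disease control relative to untreated check discs, assessed once untreated discs show adequate disease, 12 to 14 days after application. Compounds, tested at 200 ppm in the applied formulation, are sprayed onto soybean leaf discs one day before inoculation with a spore suspension.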

The term inhibition denotes the drop in the measured response relative to a control, in per cent. A word on the melting point: it is the temperature of the solid-liquid transition. The compound `FC(F)(F)c1nc(-c2ccc(Sc3ccccc3)cc2)no1` [Compound 1.1, 3-(4-phenylsulfanylphenyl)-5-(trifluoromethyl)-1,2,4-oxadiazole] showed a melting point of 59 to 62 °C. Further, the pest or weed control at 200 ppm in data set [1] was at least 80%. The inhibition at 20 ppm in data set [2] is at least 80%. Moreover, in data set [3], the pest or weed control at 200 ppm was at least 80%. In addition, the pest or weed control at 200 ppm with Phakopsora pachyrhizi is at least 80%.

In turn, `COc1ccc(Sc2ccc(-c3noc(C(F)(F)F)n3)cc2)cc1` [Compound 1.2, 3-[4-(4-methoxyphenyl)sulfanylphenyl]-5-(trifluoromethyl)-1,2,4-oxadiazole] showed a melting point of 55 to 60 °C. Also, in data set [1], the pest or weed control at 200 ppm was at least 80%. In addition, the inhibition at 20 ppm in data set [2] is at least 80%. Further, the pest or weed control at 200 ppm in data set [3] was at least 80%. Besides, the pest or weed control at 200 ppm with Phakopsora pachyrhizi is at least 80%.

Take `Fc1c(CSc2ccccc2)ccc(-c2noc(C(F)(F)F)n2)c1F` [Compound 1.26, 3-[2,3-difluoro-4-(phenylsulfanylmethyl)phenyl]-5-(trifluoromethyl)-1,2,4-oxadiazole]: the melting point was 52 to 58 °C. The pest or weed control at 200 ppm in data set [1] is at least 80%. Moreover, the inhibition at 20 ppm in data set [2] is at least 80%. In data set [3], the pest or weed control at 200 ppm is at least 80%. Moreover, the pest or weed control at 200 ppm in the data set with Phakopsora pachyrhizi was at least 80%.

`[O-][S+](c1ccccc1)c1ccc(-c2noc(C(F)(F)F)n2)cc1` (centres unmarked) [Compound 2.1, 3-[4-(benzenesulfinyl)phenyl]-5-(trifluoromethyl)-1,2,4-oxadiazole] yielded a melting point of 97 to 106 °C. Further, the pest or weed control at 200 ppm in data set [1] is at least 80%. The inhibition at 20 ppm in data set [2] is at least 80%. The pest or weed control at 200 ppm in data set [3] is at least 80%. Also, in the data set with Phakopsora pachyrhizi, the pest or weed control at 200 ppm was at least 80%.

Take `COc1ccc([S+]([O-])c2ccc(-c3noc(C(F)(F)F)n3)cc2)cc1` (centres unmarked) [Compound 2.2, 3-[4-(4-methoxyphenyl)sulfinylphenyl]-5-(trifluoromethyl)-1,2,4-oxadiazole]: the melting point lay in the range of 93 to 98 °C. Further, in data set [1], the pest or weed control at 200 ppm was at least 80%. Further, in data set [2], the inhibition at 20 ppm was at least 80%. The pest or weed control at 200 ppm in data set [3] is at least 80%. Besides, the pest or weed control at 200 ppm in the data set on Phakopsora pachyrhizi was at least 80%.

Compound `[O-][S+](c1ccc(-c2noc(C(F)(F)F)n2)cc1)C1CCCCC1` (centres unmarked) [Compound 2.3, 3-(4-cyclohexylsulfinylphenyl)-5-(trifluoromethyl)-1,2,4-oxadiazole] displayed a melting point of 108 to 114 °C. Besides, the pest or weed control at 200 ppm in data set [1] is at least 80%. For the same compound, the inhibition at 20 ppm in data set [2] was at least 80%. In addition, the pest or weed control at 200 ppm in data set [3] is at least 80%. Also, the pest or weed control at 200 ppm with Phakopsora pachyrhizi is at least 80%.

`[O-][S+](c1ccc(-c2noc(C(F)(F)F)n2)cc1)c1ccc(F)cc1F` (centres unmarked) [Compound 2.5, 3-[4-(2,4-difluorophenyl)sulfinyl-phenyl]-5-(trifluoromethyl)-1,2,4-oxadiazole]: the melting point is 118 to 123 °C. In addition, the pest or weed control at 200 ppm in data set [1] is at least 80%. The inhibition at 20 ppm in data set [2] was at least 80%. Also, in data set [3], the pest or weed control at 200 ppm was at least 80%. Also, the pest or weed control at 200 ppm in the data set on Phakopsora pachyrhizi is at least 80%.

The compound `[O-][S+](CC(F)(F)F)c1ccc(-c2noc(C(F)(F)F)n2)cc1` (centres unmarked) [Compound 2.6, 3-[4-(2,2,2-trifluoroethylsulfinyl)phenyl]-5-(trifluoromethyl)-1,2,4-oxadiazole] displayed a melting point of 93 to 100 °C. For the same compound, in data set [1], the pest or weed control at 200 ppm was at least 80%. Also, the inhibition at 20 ppm in data set [2] was at least 80%. Further, the pest or weed control at 200 ppm in data set [3] is at least 80%. The pest or weed control at 200 ppm in the data set with Phakopsora pachyrhizi is at least 80%.

Take `[O-][S+](CCc1ccccc1)c1ccc(-c2noc(C(F)(F)F)n2)cc1` (centres unmarked) [Compound 2.8, 3-[4-(2-phenylethylsulfinyl)phenyl]-5-(trifluoromethyl)-1,2,4-oxadiazole]: the melting point fell in the range of 81 to 85 °C. The pest or weed control at 200 ppm in data set [1] was at least 80%. In addition, the inhibition at 20 ppm in data set [2] is at least 80%. Moreover, the pest or weed control at 200 ppm in data set [3] is at least 80%. In addition, the pest or weed control at 200 ppm in the data set with Phakopsora pachyrhizi was at least 80%.

In turn, `[O-][S+](c1ccccc1)c1ccc(-c2noc(C(F)(F)F)n2)cn1` (centres unmarked) [Compound 2.10, 3-[6-(benzenesulfinyl)-3-pyridyl]-5-(trifluoromethyl)-1,2,4-oxadiazole] registered a melting point of 91 to 97 °C. Also, the pest or weed control at 200 ppm in data set [1] was at least 80%. Moreover, in data set [2], the inhibition at 20 ppm was at least 80%. Moreover, the pest or weed control at 200 ppm in data set [3] was at least 80%. Also, the pest or weed control at 200 ppm with Phakopsora pachyrhizi is at least 80%.

`Cc1cc(C)cc([S+]([O-])c2ccc(-c3noc(C(F)(F)F)n3)cc2)c1` (centres unmarked) [Compound 2.12, 3-[4-(3,5-dimethylphenyl)sulfinyl-phenyl]-5-(trifluoromethyl)-1,2,4-oxadiazole] returned a melting point of 71 to 83 °C. Moreover, in data set [1], the pest or weed control at 200 ppm was at least 80%. In data set [2], the inhibition at 20 ppm is at least 80%. For the same compound, the pest or weed control at 200 ppm in data set [3] was at least 80%. Moreover, the pest or weed control at 200 ppm in the data set on Phakopsora pachyrhizi was at least 80%.

For the compound `[O-][S+](c1ccc(-c2noc(C(F)(F)F)n2)cc1)C1CCCC1` (centres unmarked) [Compound 2.23, 3-(4-cyclopentylsulfinylphenyl)-5-(trifluoromethyl)-1,2,4-oxadiazole], the pest or weed control at 200 ppm (in data set [1]; in data set [3]; in the data set with Phakopsora pachyrhizi) was at least 80% throughout. Further, the inhibition at 20 ppm in data set [2] is at least 80%.

Regarding `[O-][S+](Cc1ccc(-c2noc(C(F)(F)F)n2)cn1)c1ccccc1` (centres unmarked) [Compound 2.28, 3-[6-(benzenesulfinylmethyl)-3-pyridyl]-5-(trifluoromethyl)-1,2,4-oxadiazole], the melting point lay within 116 to 120 °C. Moreover, in data set [1], the pest or weed control at 200 ppm was at least 80%. For the same compound, in data set [2], the inhibition at 20 ppm was at least 80%. In addition, in data set [3], the pest or weed control at 200 ppm is at least 80%. Moreover, the pest or weed control at 200 ppm in the data set on Phakopsora pachyrhizi is at least 80%.

Take `O=S(=O)(c1ccccc1)c1ccc(-c2noc(C(F)(F)F)n2)cc1` [Compound 3.1, 3-[4-(benzenesulfonyl)phenyl]-5-(trifluoromethyl)-1,2,4-oxadiazole]: the melting point fell in the range of 128 to 132 °C. The pest or weed control at 200 ppm in data set [1] was at least 80%. Also, the inhibition at 20 ppm in data set [2] was at least 80%. Besides, the pest or weed control at 200 ppm in data set [3] is at least 80%. Moreover, in the data set on Phakopsora pachyrhizi, the pest or weed control at 200 ppm is at least 80%.

In the case of `O=S(=O)(c1ccc(-c2noc(C(F)(F)F)n2)cc1)C1CCCC1` [Compound 3.16, 3-(4-cyclopentylsulfonylphenyl)-5-(trifluoromethyl)-1,2,4-oxadiazole], the melting point was in the range of 85 to 92 °C. Also, in data set [1], the pest or weed control at 200 ppm is at least 80%. Moreover, the inhibition at 20 ppm in data set [2] was at least 80%. The pest or weed control at 200 ppm in data set [3] is at least 80%. Also, the pest or weed control at 200 ppm in the data set on Phakopsora pachyrhizi was at least 80%.
